Literature values in publication PMC6343925, “Cholesterol re-organisation and lipid de-packing by arginine-rich cell penetrating peptides: Role in membrane translocation” (PLoS ONE, 2019).
No end group written: not given here.

Details: membranes contained PG; same experimental approach

translocation into LUVs | Compound
able to translocate | RRWWRRWRR-NH2 [RW9]
able to translocate | N=C(N)NCCC[C@H](NC(=O)[C@H](CCCNC(=N)N)NC(=O)[C@H](CCCNC(=N)N)NC(=O)[C@H](CCCNC(=N)N)NC(=O)[C@H](CCCNC(=N)N)NC(=O)[C@H](CCCNC(=N)N)NC(=O)[C@H](CCCNC(=N)N)NC(=O)[C@H](CCCNC(=N)N)NC(=O)[C@@H](N)CCCNC(=N)N)C(N)=O [R9, Nona-arginine]
